Laboratory results taken from the NIST ThermoML archive (doi:10.1016/j.tca.2013.05.015).

Test: mn = molality of the nth substance listed, in mol/kg
Details: 101 kPa, Liquid; for speed of sound: Sing-around technique in a fixed-path interferometer; for mass density: Vibrating tube method

CCCCCCCC[N+](C)(CCCCCCCC)CCCCCCCC.O=S(=O)([N-]S(=O)(=O)C(F)(F)F)C(F)(F)F + CCO
Details	mass density, 298.15 K [kg/m3]	mass density, 303.15 K [kg/m3]	mass density, 308.15 K [kg/m3]	mass density, 313.15 K [kg/m3]	speed of sound, 298.15 K [m/s]	speed of sound, 303.15 K [m/s]	speed of sound, 308.15 K [m/s]	speed of sound, 313.15 K [m/s]
m1 = 0.022	787.5	783.3	778.6	774	1150	1129	1099	1087
m1 = 0.0465	790.5	786.3	781.5	777	1151	1130	1100	1088
m1 = 0.0692	793.7	789.3	784.3	779.5	1152	1131	1101	1089
m1 = 0.1378	805.5	801.2	797	792.6	1154	1134	1116	1104
m1 = 0.2691	825.5	821.5	816.6	812	1158	1140	1122	1110
m1 = 0.4006	844.7	840.6	836.4	832.3	1170	1149	1134	1116
m1 = 0.6112	868.3	864.6	860.4	856.3	1176	1158	1140	1125
m1 = 0.8299	883.8	879.9	875.8	866.2	1179	1161	1146	1131
m1 = 1.008	892.6	888.9	884.8	880.7	1182	1164	1149	1134
m1 = 1.28	910.2	906.5	902.4	898.3	1188	1170	1158	1146

CCCCCCCC[N+](C)(CCCCCCCC)CCCCCCCC.O=S(=O)([N-]S(=O)(=O)C(F)(F)F)C(F)(F)F + CCOC(C)=O
Details	mass density, 298.15 K [kg/m3]	mass density, 303.15 K [kg/m3]	mass density, 308.15 K [kg/m3]	mass density, 313.15 K [kg/m3]	speed of sound, 298.15 K [m/s]	speed of sound, 303.15 K [m/s]	speed of sound, 308.15 K [m/s]	speed of sound, 313.15 K [m/s]
m1 = 0.0193	897	891.1	885.3	878.9	1142	1119	1097	1074
m1 = 0.0434	900	894.1	888.3	882	1143	1120	1098	1076
m1 = 0.0692	903	897.1	891.3	885	1144	1122	1104	1077
m1 = 0.1377	910.7	904.8	899.1	892.9	1149	1125	1107	1080
m1 = 0.2691	923.8	918	912.4	906.5	1152	1128	1110	1083
m1 = 0.4006	935.1	929.4	924	918.3	1155	1131	1113	1086
m1 = 0.6119	950.4	944.9	939.7	934.5	1161	1140	1116	1092
m1 = 0.8299	963.4	958.3	953.3	948.4	1164	1146	1122	1098
m1 = 1.006	972.5	967.5	962.6	957.9	1170	1158	1128	1107
m1 = 1.28	984.5	979.7	974.8	970.2	1179	1161	1137	1113
m1 = 2.132	1011.1	1006.9	1001.9	997	1200	1170	1152	1131
m1 = 2.999	1029.3	1025.5	1019.5	1013.8	1206	1182	1161	1140
